The values that follow come from PubChem BioAssay AID1200 (NMMLSC, 2008).

As a reminder, the EC50 is the concentration that produces a half-maximal response.

Structures are written as SMILES. Activity calls are given as the source filed them. No rule for the calls is given here. A value given as a limit tells only on which side of the number the result lay.

Test system in the first experiment: not listed separately
Nature of the experiment: cell killing in prostate cells – flow cytometry event count, cytotoxicity control for prostate cell differentiation activator project, dose response (AID 1200). The note with it: prostate cells, cell count (flow cytometry events), cytotoxicity; at 30 µM (top of the series).
In the case of `CCN(CCNC(=O)C1CCN(Cc2nc(-c3ccc(Cl)cc3)oc2C)CC1)c1ccccc1`, the cell count (% of control) is 22% (inactive).

Turning to `Cn1c(=O)[nH]c(=O)c2c1nc(Br)n2CCCSc1nc2ccccc2o1`, the cell count (% of control) is 227% (inactive). Still for that read-out and setting: then `COc1ccc(N2CCN(CCCNC(=O)CCCn3c(=O)[nH]c4ccsc4c3=O)CC2)cc1`, with 330% (inactive). Same read-out and setting: under `O=c1cc(-c2ccccc2)[nH]c2ccccc12` stands 105% (inactive); under `Clc1ccc(COC(Cn2ccnc2)c2ccc(Cl)cc2Cl)cc1` (centres undefined), 350% (inactive). On the same count and under the same terms, then `CCOc1cccc2cc(-c3cn4cc(C)ccc4n3)c(=O)oc12`, with 44.8% (inactive); and `COc1ccc(-c2noc(CCC(=O)NCCCN3CCC(Cc4ccccc4)CC3)n2)cc1`, with 276% (inactive); and `Cc1cc(N2CCN(C)CC2)nc2ccc(NC(=O)c3ccc4c(c3)OCO4)cc12`, with 102% (inactive). As for `COc1ccccc1NC(=O)c1nc[nH]c1C(=O)Nc1ccccc1OC`, the cell count (% of control) was 546% (inactive).

Consider `O=C(Cn1cc2c(n1)CCCC2)NCCCN1CCN(c2ccccc2F)CC1`, for which the cell count (% of control) was 382% (inactive). Consider `Cc1ccccc1CS(=O)(=O)CCC(=O)NCCCN1CCN(c2ccccc2F)CC1`, for which the cell count (% of control) is 854% (inactive). Still for that read-out and setting: under `N=c1n(CCN2CCCCC2)c2ccccc2n1CC(O)COc1ccccc1` (centres undefined) stands 311% (inactive); under `C[C@H]1CCC/C=C/C2C[C@H](O)CC2[C@H](O)/C=C/C(=O)O1` (some centres undefined), 129% (inactive); under `Cc1ccc(CNc2nc3ccccc3n3nnnc23)cc1`, 348% (inactive). Regarding `CCOc1ccc(NC(=O)COc2nsnc2N2CCCCC2)cc1`, the cell count (% of control) is 226% (inactive). On the same count and under the same terms, under `COc1ccc(-c2noc(-c3cc(Cl)ccc3Cl)n2)cc1OC` stands 347% (inactive); under `Cc1ccc(Nc2cc(=O)n(C3CCCCC3)c(=O)[nH]2)cc1C`, 196% (inactive). On to `Cc1cc(C)nc(N2CCC(C(=O)Nc3ccc(Oc4ccccc4)cc3)CC2)n1`, for which the cell count (% of control) was 264% (inactive).

In the case of `CCN(CCNC(=O)C1CCN(Cc2nc(-c3cccc(Cl)c3)oc2C)CC1)c1ccccc1`, the cell count (% of control) was 141% (inactive). On the same count and under the same terms, then `Cc1nc2ncnn2c(C)c1CCC(=O)NCCCN1CCN(c2cccc(Cl)c2)CC1`, with 1150% (inactive); and `CCn1c(=N)n(CC(O)COc2cccc(C)c2)c2ccccc21` (centres undefined), with 266% (inactive).

In another experiment the test system is prostate cells, cell count (flow cytometry events), cytotoxicity. The description is as above.
Conditions: not given
Regarding `Cc1ccccc1-c1nc(CN2CCC(C(=O)NCc3cccnc3)CC2)c(C)o1`, the EC50 was 1.99 µM. Same read-out and setting: under `Cc1ccccc1-c1nc(CN2CCC(C(=O)NCCCN3CC(C)CC(C)C3)CC2)c(C)o1` (centres undefined) stands 2.11 µM. On the same count and under the same terms, then `CCN(CC)CCCNC(=O)c1cc2c(-c3ccc(Cl)cc3)nn(C)c2s1`, with 2.64 µM; and `CCN(CC)CC(=O)Nc1ccc(-c2nc3cc(NC(=O)CN(CC)CC)ccc3o2)cc1`, with 8.06 µM. The same measure, in the same setting: under `CC1CCCCN1CCNC(=O)c1cc2c(-c3ccccc3F)nn(C)c2s1` (centres undefined) stands 8.61 µM. Consider `CCOc1ccccc1NC(=O)c1nc[nH]c1C(=O)Nc1ccccc1OCC`, for which the EC50 is 3.26 µM (inactive).

On to `Cn1nc(-c2ccc(Cl)cc2)c2cc(C(=O)NCCCN3CCCC3)sc21`, for which the EC50 is 4.21 µM. Still for that read-out and setting: then `Cc1ccccc1-c1nc(CN2CCC(C(=O)NCCCN3CCOCC3)CC2)c(C)o1`, with 3.44 µM (inactive). The same measure, in the same setting: then `CCc1ccc(-c2nc(CN3CCC(C(=O)NCc4ccc(F)cc4)CC3)c(C)o2)cc1`, with 1.8 µM. Turning to `COc1ccc2cc3cc(C(=O)Nc4ccccc4N4CCN(C)CC4)oc3nc2c1`, the concentration giving a half-maximal response (EC50) was 2.06 µM. Regarding `Cc1oc(-c2ccc(Cl)cc2)nc1CN1CCC(C(=O)N2CCN(Cc3ccccc3)CC2)CC1`, the EC50 is 3.29 µM. Consider `Cc1ccccc1-c1nc(CN2CCCC(C(=O)NCCCN3CCOCC3)C2)c(C)o1` (centres undefined), for which the EC50 was 13.9 µM (inactive). Still for that read-out and setting: under `Cn1c(=O)cc(OCC(=O)NCCCN2CCN(c3ccccc3F)CC2)c2ccccc21` stands 14 µM (inactive); under `Cc1oc(-c2ccc(Cl)cc2)nc1CN1CCC(C(=O)NCCCN2CCOCC2)CC1`, 17.8 µM (inactive); under `CCN(CC)CCNC(=O)c1ccc(N2CCCCC2)c(NS(=O)(=O)c2ccc(C)cc2)c1`, 0.145 µM. With `CCN1CCCC1CNC(=O)C1CCN(Cc2nc(-c3cccc(Br)c3)oc2C)CC1` (centres undefined), the EC50 was 1.14 µM.

On to `CCCN(CCC)CCNC(=O)C1CCN(Cc2nc(-c3ccc(Cl)cc3)oc2C)CC1`, for which the EC50 was 6.46 µM. For the compound `CCOC(=O)c1c(C)[nH]c(C(=O)COC(=O)C2CC2C)c1C` (centres undefined), the half-maximal effective concentration (EC50) was 0.441 µM. The same measure, in the same setting: under `COc1ccccc1N1CCN(c2nc3ccccc3nc2C(C#N)C(=O)OC(C)C)CC1` (centres undefined) stands 9.78 µM (inactive); under `CN(CCNC(=O)C1CC(=O)N(c2ccc(F)c(Cl)c2)C1)Cc1ccccc1` (centres undefined), 27.5 µM (inactive); under `Cc1ccc(OCC(O)Cn2c(=N)n(CCN3CCCCC3)c3ccccc32)cc1` (centres undefined), 3.48 µM. The same measure, in the same setting: then `CC(C)N1CCC2(CC1)N=C(c1ccc3c(c1)OCO3)CC(c1cc(Cl)ccc1O)N2` (centres undefined), with 1.86 µM. On to `Oc1c(CN2CCCCC2)cc(COCc2ccccc2)c2cccnc12`, for which the EC50 was 2.96 µM.

Take `COc1ccc(Nc2nc(N)nc(CN3CCC(Cc4ccccc4)CC3)n2)cc1`: the 50% effective concentration (EC50) is 2.46 µM. Still for that read-out and setting: then `COc1ccc(Cc2nc(-c3ccc(-n4cccc4)cc3)no2)cc1OC`, with 3.01 µM (inactive); and `O=C(c1ccccc1)c1ccc(N2CCNCC2)cc1`, with > 30 µM (inactive). In the case of `CCCOc1ccccc1C1CC(=O)Nc2cc3c(cc21)OCO3` (centres undefined), the EC50 is 0.373 µM (inactive). Same read-out and setting: under `Cc1ccc(C)c(N2CCN(CCCNC(=O)Cn3cc4c(n3)CCCCC4)CC2)c1` stands 11.1 µM; under `CCn1c(=O)cc(SCC(=O)NCCCN2CCN(c3ccccc3F)CC2)c2ccccc21`, 15.6 µM (inactive).

In the case of `CC1CCCCN1CCNC(=O)c1ccc2c(=O)n(CCc3ccccc3)c(=O)[nH]c2c1` (centres undefined), the EC50 was 10.5 µM (inactive). As to `CN1CCN(c2cc3c(c4c2[nH]c2ccccc24)C(=O)CC(C)(C)C3)CC1`, the half-maximal effective concentration (EC50) is 4.6 µM.

`CCOc1ccc(-c2cc(C(=O)NCCCN3CCN(CC)CC3)c3ccccc3n2)cc1`: the EC50 is 11.1 µM (inactive). On the same count and under the same terms, under `CCCc1cc(-c2n[nH]c(C)c2-c2ccc(C(=O)OCC)o2)c(O)cc1O` stands 3.64 µM (inactive); under `CCCS(=O)(=O)N1CCCC(C(=O)NCCCN2CCN(c3ccc(F)cc3)CC2)C1` (centres undefined), 0.328 µM (inactive).

As for `O=S1(=O)C=C(Sc2nc3ccccc3s2)c2ccccc21`, the concentration for a half-maximal effect (EC50) was 0.959 µM. For the compound `CCOC(=O)c1c(C)n(C)c2ccc(OCC(O)CNC(CC)CO)cc12` (centres undefined), the EC50 was 10.9 µM (inactive). The same measure, in the same setting: then `CCN(CC)CCNC(=O)c1cc2c(-c3ccc(Cl)cc3)nn(C)c2s1`, with 3.88 µM; and `Cn1c(=O)cc(SCC(=O)NCCCN2CCN(c3ccccc3F)CC2)c2ccccc21`, with 1.17 µM.
